Source: paper doi:10.1101/2021.10.07.463234v2 (biorxiv, 2021)
Structures can show the parent of a compound that is named as a salt.

What follows are compounds tested against SARS-CoV-2 Mac1 (Severe acute respiratory syndrome coronavirus 2, UniProt P0DTD1) (assay: biochemical). Conditions: 100 µM; inhibitor.

| Structure (SMILES) | %inhibition |
| --- | --- |
| Clc1ccc(CCC(Cn2ccnc2)Sc2c(Cl)cccc2Cl)cc1 (stereo not drawn) [Butoconazole nitrate] | 4.358% |
| Clc1ccc(CCC(Cn2ccnc2)Sc2c(Cl)cccc2Cl)cc1 (stereo not drawn) [Butoconazole] | 13.63% |
| COc1cc2nccc(Oc3ccc(NC(=O)C4(C(=O)Nc5ccc(F)cc5)CC4)cc3)c2cc1OC [Cabozantinib (XL184, BMS-907351)] | 25.14% |
| COc1cc2nccc(Oc3ccc(NC(=O)C4(C(=O)Nc5ccc(F)cc5)CC4)cc3)c2cc1OC [Cabozantinib malate (XL184)] | 0% |
| COc1cc(CNC(=O)CCCC/C=C/C(C)C)ccc1O [Capsaicin(Vanilloid)] | 5.806% |
| CC(=O)Oc1ccccc1C(=O)O [Carbasalate Calcium] | 5.528% |
| CCCCCCNC(=O)n1cc(F)c(=O)[nH]c1=O [Carmofur] | 16.37% |

Same assay, conditions: read-out: %inhibition

| Structure (SMILES) | inhibition at 100 µM |
| --- | --- |
| CCN[C@H]1CN(CCCOC)S(=O)(=O)c2sc(S(N)(=O)=O)cc21 [Brinzolamide] | 0% |
| CCC[C@@H]1CC(=O)N([C@@H](CC)C(N)=O)C1 [Brivaracetam] | 24.6% |
| O=c1[nH]c(=O)n([C@H]2C[C@H](O)[C@@H](CO)O2)cc1/C=C/Br [Brivudine] | 17.8% |
| Nc1c(CC(=O)O)cccc1C(=O)c1ccc(Br)cc1 [Bromfenac Sodium] | 8.6% |
| CN(Cc1cc(Br)cc(Br)c1N)C1CCCCC1 [Bromhexine HCl] | 0% |
| CC(C)C(Br)C(=O)NC(N)=O (stereo not drawn) [Bromisoval] | 0% |
| CN(C)CCC(c1ccc(Br)cc1)c1ccccn1 (stereo not drawn) [Brompheniramine hydrogen maleate] | 9.47% |
| O=[N+]([O-])C(Br)(CO)CO [Bronopol] | 0% |
| Oc1c(Br)cc(Br)c2cccnc12 [Broxyquinoline] | 0% |
| COc1cc2c(cc1OC)[C@@]13CCN4CC5=CCO[C@H]6CC(=O)N2[C@H]1[C@H]6[C@H]5C[C@H]43 [Brucine sulfate salt hydrate] | 0% |
| CCOc1ccc(NC(=O)CC(C)O)cc1 (stereo not drawn) [Bucetin] | 2.67% |
| CCCC1O[C@@H]2C[C@H]3[C@@H]4CCC5=CC(=O)C=C[C@]5(C)[C@H]4[C@@H](O)C[C@]3(C)[C@]2(C(=O)CO)O1 (stereo partly drawn) [Budesonide] | 12.3% |
| CCCCOc1ccc(CC(=O)NO)cc1 [Bufexamac] | 14.1% |
| COc1cc(OC)c(C(=O)CCCN2CCCC2)c(OC)c1 [Buflomedil HCl] | 0% |
| CCCCNc1cc(C(=O)O)cc(S(N)(=O)=O)c1Oc1ccccc1 [Bumetanide] | 25.7% |
| CCCCN1CCCCC1C(=O)Nc1c(C)cccc1C (stereo not drawn) [Bupivacaine HCl] | 0% |
| O=C1CC2(CCCC2)CC(=O)N1CCCCN1CCN(c2ncccn2)CC1 [Buspirone HCl] | 7.05% |
| CS(=O)(=O)OCCCCOS(C)(=O)=O [Busulfan] | 0% |
| CCCCOC(=O)c1ccc(N)cc1 [Butamben] | 2.1% |
| CN(Cc1ccc(C(C)(C)C)cc1)Cc1cccc2ccccc12 [Butenafine HCl] | 0% |
| CCCCOC(=O)c1ccc(O)cc1 [Butylparaben] | 0% |
| CCCC[N+]1(C)[C@@H]2C[C@@H](OC(=O)[C@H](CO)c3ccccc3)C[C@H]1[C@@H]1O[C@@H]12 (stereo partly drawn) [Butylscopolamine Bromide] | 0% |
| NC(=O)c1cc(N2CC2)c([N+](=O)[O-])cc1[N+](=O)[O-] [CB1954] | 5.18% |
| C#Cc1cccc(Nc2ncnc3cc(OC)c(OCCCCCCC(=O)NO)cc23)c1 [CUDC-101] | 6.86% |
| CO[C@H]1C(=O)[C@]2(C)[C@@H](OC)C[C@H]3OC[C@@]3(OC(C)=O)[C@H]2[C@H](OC(=O)c2ccccc2)[C@]2(O)C[C@H](OC(=O)[C@H](O)[C@@H](NC(=O)OC(C)(C)C)c3ccccc3)C(C)=C1C2(C)C [Cabazitaxel] | 25.1% |

| Structure (SMILES) | inhibition at 100 µM |
| --- | --- |
| C=C1CC[C@H](O)C/C1=C/C=C1\CCC[C@]2(C)[C@@H]([C@H](C)CCCC(C)(C)O)CC[C@@H]12 [Calcifediol] | 0% |
| C=C1/C(=C\C=C2/CCC[C@]3(C)[C@@H]([C@H](C)/C=C/[C@@H](O)C4CC4)CC[C@@H]23)C[C@@H](O)C[C@@H]1O [Calcipotriene] | 0% |
| CC(C)(CO)[C@@H](O)C(=O)NCCC(=O)O [Calcium D-Panthotenate] | 14.2% |
| O=C(O)C(O)[C@H](O)[C@@H](O)[C@H](O)[C@H](O)CO (stereo partly drawn) [Calcium Gluceptate] | 0% |
| Nc1nc(=O)c2c([nH]1)NCC(CNc1ccc(C(=O)N[C@@H](CCC(=O)O)C(=O)O)cc1)N2C=O (stereo partly drawn) [Calcium folinate] | 0% |
| O=C(O)[C@H](O)[C@@H](O)[C@H](O)[C@H](O)CO [Calcium gluconate] | 0% |
| CN(C)C(=O)COC(=O)Cc1ccc(OC(=O)c2ccc(NC(=N)N)cc2)cc1 [Camostat Mesilate] | 42.9% |
| Cc1ccc([C@@H]2O[C@H](CO)[C@@H](O)[C@H](O)[C@H]2O)cc1Cc1ccc(-c2ccc(F)cc2)s1 [Canagliflozin] | 0% |
| CCOc1nc2cccc(C(=O)OC(C)OC(=O)OC3CCCCC3)c2n1Cc1ccc(-c2ccccc2-c2nn[nH]n2)cc1 (stereo not drawn) [Candesartan Cilexetil] | 0% |
| CCOc1nc2cccc(C(=O)O)c2n1Cc1ccc(-c2ccccc2-c2nnn[nH]2)cc1 [Candesartan] | 0% |
| CSCCNc1nc(SCCC(F)(F)F)nc2c1ncn2[C@@H]1O[C@H](COP(=O)(O)OP(=O)(O)C(Cl)(Cl)P(=O)(O)O)[C@@H](O)[C@H]1O [Cangrelor Tetrasodium] | 0% |
| CCCCCOC(=O)Nc1nc(=O)n([C@@H]2O[C@H](C)[C@@H](O)[C@H]2O)cc1F [Capecitabine] | 6.29% |
| C[C@H](CS)C(=O)N1CCC[C@H]1C(=O)O [Captopril] | 0% |
| C[N+](C)(C)CCOC(N)=O [Carbachol] | 3.56% |
| COC(=O)N/N=C/c1c[n+]([O-])c2ccccc2[n+]1[O-] [Carbadox] | 6.86% |
| NC(=O)N1c2ccccc2C=Cc2ccccc21 [Carbamazepine] | 0% |
| CN1c2cc(O)c(N=NC(N)=O)cc2CC1S(=O)(=O)O (stereo not drawn) [Carbazochrome sodium sulfonate (AC-17)] | 15.7% |
| CN1CC(O)C2=C/C(=N/NC(N)=O)C(=O)C=C21 (stereo not drawn) [Carbazochrome] | 10.9% |
| CC1(C)S[C@@H]2[C@H](NC(=O)C(C(=O)O)c3ccccc3)C(=O)N2[C@H]1C(=O)O (stereo partly drawn) [Carbenicillin disodium] | 2.9% |
| CC1(C)[C@@H](OC(=O)CCC(=O)O)CC[C@]2(C)[C@H]3C(=O)C=C4[C@@H]5C[C@@](C)(C(=O)O)CC[C@]5(C)CC[C@@]4(C)[C@]3(C)CC[C@@H]12 [Carbenoxolone Sodium] | 4.8% |
| C[C@@](Cc1ccc(O)c(O)c1)(NN)C(=O)O [Carbidopa] | 24.2% |
| CCOC(=O)n1ccn(C)c1=S [Carbimazole] | 0% |
| CN(C)CCOC(c1ccc(Cl)cc1)c1ccccn1 (stereo not drawn) [CarbinoxaMine Maleate] | 0% |
| CCCCC[C@](C)(O)/C=C/[C@@H]1[C@@H](C/C=C\CCCC(=O)O)[C@@H](O)C[C@H]1O [Carboprost] | 17.6% |
| CC(C(=O)O)c1ccc2c(c1)[nH]c1ccc(Cl)cc12 (stereo not drawn) [Carprofen] | 0% |
